Like-named read-outs stand apart in the source and are kept apart here.
Legend:
[1] = biological target: T1, DCN1 (DCUND1) protein PONY domain (Homo sapiens (Human), UniProt Q96GG9); assay: TR-FRET assay, DCN1 binding with FAM-labeled probe
How it was run: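 Biotinylated DCN1 PONY domain, labeled with streptavidin-Tb, was competed against a FAM-labeled non-covalent DCN1 inhibitor probe in buffer with TritonX and 200 mM NaCl. Conditions were 5 nM DCN1 with 20 nM FAM-probe, or 0.31 nM DCN1 with 100 nM FAM-plus 800 nM unlabeled probe. The TR-FRET ratio was read at 1, 5 and 24 h (0.1% DMSO).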

DCN1 protein = DCN1 protein (Homo sapiens (Human), UniProt Q96GG9); assay: Intact Protein MS Analysis with the RapidFire-TOF System (covalent adduct formation); assay type: binding; settings: MS Emax; 400 nM DCN1, 3 hours at room temperature
How it was run: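 Tag-cleaved human DCN1 (400 nM) expressed in E. coli, in 25 mM Tris-HCl, 200 mM NaCl, 1 mM DTT, was incubated with 11 compound concentrations for 3 h at room temperature and quenched with 0.2% formic acid. Intact-protein Q-TOF MS with deconvolution detected the compound adduct mass.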

[2] = biological target: T1, DCN1 (DCUND1) protein PONY domain; assay: Off-rate measurement of reversible covalent molecules (jump dilution TR-FRET with Cy5 probe); assay type: binding; settings: for Category: binding mode category from off-rate assay; for residence time: inverse of rate constant K; for residence time / half-life: jump dilution TR-FRET; for koff: jump dilution, Cy5 covalent probe 150 nM, TR-FRET; for half-life: ln(2)/K
Source text: A typical covalent compound is assumed to stay bound to a protein for at least the life of that protein in the cell. In reality, there is a range of how long a covalent compounds remains bound before a reverse reaction takes place. Thus, some covalent bonds can be labeled as reversible as their reverse reaction takes place in a measurable amount of time under physiological conditions. The assay capitalizes on the range of covalent binders by using a high affinity covalent binder as a probe to displace the more reversible binders in an adaptation of the jump dilution method.
In this version of the jump dilution method, the increase in covalent probe binding over time was measured through a TR-FRET reaction between the covalent probe and the biotinylated target protein.
The recombinant form of the DCN1 (DCUND1) protein PONY domain was produced using an E. coli expression system at Viva Biotech (China). The DCN1 protein was biotinylated (EZ sulfo-NHS-LC-biotin; Thermofisher) for labeling with streptavidin terbium (Tb) cryptate in the reaction. This biotinylated protein was used in two forms of the TR-FRET assay as described below.
The off-rate measurement is executed in two steps based on the jump dilution method. […] The greatest dilution allowed within the constraints of the assay was chosen. These factors allow a competitive advantage for the covalent probe to replace the test compound when that compound releases from the target protein. The actual measure is the rate of increased TR-FRET signal as the covalent probe replaces the test compound over time. […] The resulting time dependent curve of the TR-FRET signal is fit to the following equation:
Y=Y0+(Plateau−Y0)*(1−exp(−K*x))
K is the rate constant (1/unit of time). The residence time is defined as the inverse of K, the rate constant. The half-life is calculated as ln(2)/K.

[3] = tested on: Cullin-3 (CUL3) neddylation; assay: AlphaLISA assay for Cullin-3 (CUL3) neddylation in TF 1 cells; assay type: cell-based; settings: 3 hours treatment
How it was run: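 Neddylated CUL3 was quantified by AlphaLISA in lysates of TF 1 cells exposed for 3 h to test compound in IMDM without supplements. Percent inhibition set between vehicle and 1 μM DI-1548 positive control; IC50 derived by Hill-equation fitting of dose-response curves.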

[4] = tested on: fetal hemoglobin gene HBG1; assay: HBG1 Nanostring Assay in CD34+ HSPC erythroid differentiation culture; assay type: cell-based, human; settings: for EC50: HBG1 induction, Day10 of erythroid differentiation; for Nanostring Ymax obs (%): relative to a control compound (C1)
How it was run: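 HBG1 counts came from direct nCounter hybridization (67° C, 22 h) of day-10 lysates, normalized to ERCC positive controls and a housekeeping gene, giving EC50 and Ymax versus a reference compound. Compounds in 0.1% DMSO were present from day −2 while cells underwent EPO/SCF/IL-3 erythroid differentiation, with IL-3 dropped at day 7, at 37° C.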

[5] = 24 hr after treatment with compound, read-out: TR FRET IC50 24 hr
[6] = read-out: TR FRET IC50 1 hr, 1 hr after treatment with compound
[7] = TR FRET IC50 1 hr (nM), 1 hr after treatment with compound

T1 sequence (Q96GG9 60-248): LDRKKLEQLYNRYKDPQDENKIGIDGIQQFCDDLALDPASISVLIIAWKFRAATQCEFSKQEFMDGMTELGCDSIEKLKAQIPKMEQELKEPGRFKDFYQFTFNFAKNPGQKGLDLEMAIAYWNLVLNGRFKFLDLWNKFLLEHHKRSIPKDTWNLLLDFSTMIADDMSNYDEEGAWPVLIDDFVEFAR
Chain of DCN1 protein (Q96GG9 whole entry): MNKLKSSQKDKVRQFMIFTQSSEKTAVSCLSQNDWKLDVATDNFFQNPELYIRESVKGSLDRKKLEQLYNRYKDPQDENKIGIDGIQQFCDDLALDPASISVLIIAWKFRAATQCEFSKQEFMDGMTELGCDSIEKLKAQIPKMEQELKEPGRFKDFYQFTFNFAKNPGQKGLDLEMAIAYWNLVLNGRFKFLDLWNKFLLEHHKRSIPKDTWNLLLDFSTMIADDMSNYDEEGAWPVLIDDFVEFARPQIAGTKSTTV

Compound	IC50 [1, 5]	IC50 [1, 6]	% Adduct Formation (DCN1 protein)	Category [2]	residence time [2]	koff [2]	half-life [2]	IC50 ([3]; Homo sapiens, TF-1, 3 h)	IC50 [1, 7]	EC50 ([4]; Homo sapiens, 240 h)	Nanostring Ymax obs (%) [4]	EC50 [4]	IC50 [3]
CCN1C(=O)[C@@H](NC(=O)c2cccc(C(F)(F)F)c2)[C@@H](C2CC2)c2c(C(=O)N3CCOC[C@H]3C#N)nn(C3CCOCC3)c21 [Compound I-381]	≤ 200 nM	≤ 200 nM	+++ (MS Emax % adduct formation greater than 80.0 and less than or equal to 100.0)	reversible covalent	297 min	5.62e-05 s⁻¹	3.427 h	–	–	–	–	–	–
CCN1C(=O)[C@@H](NC(=O)c2cccc(C(F)(F)F)c2)[C@@H](C2CC2)c2c(C(=O)N3CCN(C)C[C@H]3C#N)nn(C3CCOCC3)c21 (single isomer, unassigned) [Compound I-430]	≤ 200 nM	–	–	slow reversible	–	–	–	≤ 0.1 µM	200 to 1000 nM	–	–	–	–
CCN1C(=O)[C@@H](NC(=O)c2cccc(C(F)(F)F)c2)[C@@H](C2CC2)c2c(C(=O)N3CS(=O)(=O)C[C@@H]3C#N)nn(C3CCOCC3)c21 [Compound I-560]	≤ 200 nM	≤ 200 nM	–	fast reversible	44.1 min	0.000378 s⁻¹	0.509 h	≤ 0.1 µM	–	–	–	–	–
CCN1C(=O)[C@@H](NC(=O)c2cccc(C(F)(F)F)c2)[C@@H](C2CC2)c2c(C(=O)N3CC[C@H]3C#N)nn(C3CCOCC3)c21 [Compound I-660]	≤ 200 nM	≤ 200 nM	–	reversible covalent	266 min	6.28e-05 s⁻¹	3.07 h	≤ 0.1 µM	–	–	–	–	–
CCN1C(=O)[C@@H](NC(=O)c2cccc(C(F)(F)F)c2)[C@@H](c2ccc(F)cc2)c2c(C(=O)N3CCS(=O)(=O)C[C@H]3C#N)nn(C3CCOCC3)c21 (mixture of isomers) [Compound I-436]	≤ 200 nM	≤ 200 nM	–	reversible covalent	76.7 min	0.000238 s⁻¹	0.8857 h	≤ 0.1 µM	–	–	–	–	–
CCN1C(=O)[C@@H](NC(=O)c2cccc(C(F)(F)F)c2)[C@@H](c2ccc(F)cc2)c2c(C(=O)N3CC(F)(F)C[C@H]3C#N)nn(-c3ccccc3)c21 (racemic) [Compound I-251, N-((4RS,5RS)-3-(I-2-cyano-4,4-difluoropyrrolidine-1-carbonyl)-7-ethyl-4-(4-fluorophenyl)-6-oxo-1-phenyl-4,5,6,7-tetrahydro-1H-pyrazolo[3,4-b]pyridine-5-yl)-3-(trifluoromethyl)benzamide]	≤ 200 nM	–	+++ (MS Emax % adduct formation greater than 80.0 and less than or equal to 100.0)	–	–	–	–	≤ 0.1 µM	≤ 200 nM	0.1 to 1 µM	++ (Nanostring Ymax greater than 50.0 and less than or equal to 100.0)	–	–
CCN1C(=O)[C@@H](NC(=O)c2cccc(C(F)(F)F)c2)[C@@H](c2ccc(F)cc2)c2c(C(=O)N3[C@H](C#N)C[C@H]4C[C@H]43)nn(C3COC3)c21 [Compound I-362, N-((4S,5S)-3-((1R,3S,5R)-3-cyano-2-azabicyclo[3.1.0]hexane-2-carbonyl)-7-ethyl-4-(4-fluorophenyl)-1-(oxetan-3-yl)-6-oxo-4,5,6,7-tetrahydro-1H-pyrazolo[3,4-b]pyridin-5-yl)-3-(trifluoromethyl)benzamide]	≤ 200 nM	≤ 200 nM	+++ (MS Emax % adduct formation greater than 80.0 and less than or equal to 100.0)	–	–	–	–	≤ 0.1 µM	–	≤ 0.1 µM	++ (Nanostring Ymax greater than 50.0 and less than or equal to 100.0)	–	–
CCN1C(=O)[C@@H](NC(=O)c2cccc(C(F)(F)F)c2)[C@@H](c2ccc(F)cc2)c2c(C(=O)N3CC(F)(F)C[C@H]3C#N)nn(C3CCOCC3)c21 [Compound I-361]	≤ 200 nM	≤ 200 nM	+++ (MS Emax % adduct formation greater than 80.0 and less than or equal to 100.0)	–	–	–	–	≤ 0.1 µM	–	≤ 0.1 µM	+++ (Nanostring Ymax greater than 100.0)	–	–
C[C@@H](NC#N)c1nn(-c2ccccc2)c2c1[C@H](c1ccc(F)cc1)[C@H](NC(=O)c1cccc(C(F)(F)F)c1)C(=O)N2CCO [Compound I-274]	≤ 200 nM	≤ 200 nM	+++ (MS Emax % adduct formation greater than 80.0 and less than or equal to 100.0)	–	–	–	–	≤ 0.1 µM	–	–	+ (Nanostring Ymax greater than or equal to 0.0 and less than or equal to 50.0)	–	–
C=C(CO)C(=O)NCc1nn(-c2ccccc2)c2c1[C@@H](c1ccc(F)cc1)[C@H](NC(=O)c1cccc(C(F)(F)F)c1)C(=O)N2CC [Compound I-106]	200 to 1000 nM	–	+ (MS Emax % adduct formation greater than or equal to 0.0 and less than or equal to 30.0)	–	–	–	–	0.1 to 1 µM	200 to 1000 nM	> 1 µM	++ (Nanostring Ymax greater than 50.0 and less than or equal to 100.0)	–	–
CCN1C(=O)[C@@H](NC(=O)c2cccc(C(F)(F)F)c2)[C@@H](c2ccc(F)cc2)c2c(CN(C)C(=O)/C=C/C(=O)OC)nn(-c3ccccc3)c21 (racemic) [Compound I-107, methyl (˜{E})-4-[[(4˜{R},5˜{S})-7-ethyl-4-(4-fluorophenyl)-6-oxo-1-phenyl-5-[[3-(trifluoromethyl)benzoyl]amino]-4,5-dihydropyrazolo[3,4-b]pyridine-3-yl]methyl-methyl-amino]-4-oxo-but-2-enoate]	≤ 200 nM	≤ 200 nM	+++ (MS Emax % adduct formation greater than 80.0 and less than or equal to 100.0)	–	–	–	–	≤ 0.1 µM	–	≤ 0.1 µM	+++ (Nanostring Ymax greater than 100.0)	–	–
CCN1C(=O)[C@@H](NC(=O)c2cccc(C(F)(F)F)c2)[C@@H](c2ccc(F)cc2)c2c(CN(C)C#N)nn(-c3ccccc3)c21 [Compound I-129]	≤ 200 nM	–	+++ (MS Emax % adduct formation greater than 80.0 and less than or equal to 100.0)	–	–	–	–	–	200 to 1000 nM	–	+ (Nanostring Ymax greater than or equal to 0.0 and less than or equal to 50.0)	> 1 µM	0.1 to 1 µM
C=CS(=O)(=O)N[C@H](C)c1nn(-c2ccccc2)c2c1[C@H](c1ccc(F)cc1)[C@H](NC(=O)c1cccc(C(F)(F)F)c1)C(=O)N2CC (mixture of isomers) [Compound I-74]	≤ 200 nM	≤ 200 nM	+++ (MS Emax % adduct formation greater than 80.0 and less than or equal to 100.0)	–	–	–	–	≤ 0.1 µM	–	0.1 to 1 µM	++ (Nanostring Ymax greater than 50.0 and less than or equal to 100.0)	–	–
C=CC(=O)N[C@@H](C)c1nn(-c2ccccc2)c2c1[C@H](c1ccc(F)cc1)[C@H](NC(=O)c1cccc(C(F)(F)F)c1)C(=O)N2CC (mixture of isomers) [Compound I-143]	200 to 1000 nM	–	+ (MS Emax % adduct formation greater than or equal to 0.0 and less than or equal to 30.0)	–	–	–	–	> 1 µM	200 to 1000 nM	> 1 µM	+ (Nanostring Ymax greater than or equal to 0.0 and less than or equal to 50.0)	–	–
